From US11708367B2, “Compounds for the treatment of kinase-dependent disorders” (Exelixis, Inc., priority 2018, dated 2023)

Columns and labels:
[1] = target: T1, Met (Homo sapiens (Human), UniProt P08581); experiment: Human Met kinase assay (33P radiometric, KinaseProfiler); format: biochemical; conditions: 10 μM ATP, read-out: c-Met IC50
Description: Kinase activity and compound inhibition were investigated using the ^33P-Phosphoryl transfer radiometric kinase assay, performed using the KinaseProfiler™ service of Eurofins Pharma Discovery Services UK Limited. Dose-response experiments were performed using nine compound concentrations in a 96-well microtiter plate. For each assay, all compounds were prepared to a 50× final assay concentration (50 μM) in 100% DMSO, then diluted in a half-log series, with the final top concentration at 1 μM. This working stock of the compound was added to the assay well as the first component in the reaction, followed by the remaining components as detailed in the following assay protocols below. The positive control wells (100% kinase activity) contain all components of the reaction including 2% DMSO (control for solvent effects), except the compound of interest. Blank wells contain all components of the reaction, with the reference inhibitor, staurosporine. This reference compound was used to abolish kinase activity and generated the 0% kinase activity base-line. IC50 values were calculated by nonlinear regression analysis using the sigmoidal dose-response (variable slope) curve fit on XLFit version 5.3 (ID Business Solutions).
Human Met (residues R974-S1390 with A1209G and V1290L, 3.4 nM) was incubated with 8 mM MOPS pH 7.0, 0.2 mM EDTA, 250 µM KKKGQEEEYVFIE (SEQ ID NO. 45), 1 mM sodium orthovanadate, 5 mM […], 10 mM magnesium acetate, and 10 μM [γ-33P-ATP]. The reaction was initiated by the addition of the Mg/ATP mix. After incubation for 40 minutes at room temperature, the reaction was stopped by the addition of phosphoric acid to a concentration of 0.5%. A reaction aliquot of 10 μL was then spotted onto a P30 filtermat and washed four times for 4 minutes in 0.425% phosphoric acid and once in methanol prior to drying and scintillation counting. Incorporated 33P was measured using the Wallac Microbeta scintillation counter (Perkin Elmer).

[2] = target: AXL (Homo sapiens (Human), UniProt P30530); experiment: AXL autophosphorylation ELISA in A-172 cells; format: cell-based; conditions: cellular, Gas6-stimulated, phospho-AXL ELISA
Summary of the method: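 A-172 glioblastoma cells, serum-starved 24 h, got 8-point compound dilutions (0.3% DMSO) for 1 h, then 1 μg/mL human Gas6 for 15 min. Phospho-AXL in lysates was quantified by ELISA against a standard, normalized between DMSO and reference-inhibitor controls; IC50 by 4-parameter logistic fit.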

[3] = target: T1, Met; experiment: Met autophosphorylation ELISA in PC-3 cells; format: cell-based; conditions: cellular, HGF-stimulated, phospho-Met ELISA, read-out: c-Met IC50
Summary of the method: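 Serum-starved PC-3 cells treated 1 h with compound (8-point series, 0.3% DMSO), then stimulated 10 min with 100 ng/mL HGF. Phospho-Met (panTyr) quantified in lysates by sandwich ELISA; IC50 from 4-parameter logistic fit against DMSO and reference-inhibitor controls.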
Target sequence in this assay (P08581 25-1390): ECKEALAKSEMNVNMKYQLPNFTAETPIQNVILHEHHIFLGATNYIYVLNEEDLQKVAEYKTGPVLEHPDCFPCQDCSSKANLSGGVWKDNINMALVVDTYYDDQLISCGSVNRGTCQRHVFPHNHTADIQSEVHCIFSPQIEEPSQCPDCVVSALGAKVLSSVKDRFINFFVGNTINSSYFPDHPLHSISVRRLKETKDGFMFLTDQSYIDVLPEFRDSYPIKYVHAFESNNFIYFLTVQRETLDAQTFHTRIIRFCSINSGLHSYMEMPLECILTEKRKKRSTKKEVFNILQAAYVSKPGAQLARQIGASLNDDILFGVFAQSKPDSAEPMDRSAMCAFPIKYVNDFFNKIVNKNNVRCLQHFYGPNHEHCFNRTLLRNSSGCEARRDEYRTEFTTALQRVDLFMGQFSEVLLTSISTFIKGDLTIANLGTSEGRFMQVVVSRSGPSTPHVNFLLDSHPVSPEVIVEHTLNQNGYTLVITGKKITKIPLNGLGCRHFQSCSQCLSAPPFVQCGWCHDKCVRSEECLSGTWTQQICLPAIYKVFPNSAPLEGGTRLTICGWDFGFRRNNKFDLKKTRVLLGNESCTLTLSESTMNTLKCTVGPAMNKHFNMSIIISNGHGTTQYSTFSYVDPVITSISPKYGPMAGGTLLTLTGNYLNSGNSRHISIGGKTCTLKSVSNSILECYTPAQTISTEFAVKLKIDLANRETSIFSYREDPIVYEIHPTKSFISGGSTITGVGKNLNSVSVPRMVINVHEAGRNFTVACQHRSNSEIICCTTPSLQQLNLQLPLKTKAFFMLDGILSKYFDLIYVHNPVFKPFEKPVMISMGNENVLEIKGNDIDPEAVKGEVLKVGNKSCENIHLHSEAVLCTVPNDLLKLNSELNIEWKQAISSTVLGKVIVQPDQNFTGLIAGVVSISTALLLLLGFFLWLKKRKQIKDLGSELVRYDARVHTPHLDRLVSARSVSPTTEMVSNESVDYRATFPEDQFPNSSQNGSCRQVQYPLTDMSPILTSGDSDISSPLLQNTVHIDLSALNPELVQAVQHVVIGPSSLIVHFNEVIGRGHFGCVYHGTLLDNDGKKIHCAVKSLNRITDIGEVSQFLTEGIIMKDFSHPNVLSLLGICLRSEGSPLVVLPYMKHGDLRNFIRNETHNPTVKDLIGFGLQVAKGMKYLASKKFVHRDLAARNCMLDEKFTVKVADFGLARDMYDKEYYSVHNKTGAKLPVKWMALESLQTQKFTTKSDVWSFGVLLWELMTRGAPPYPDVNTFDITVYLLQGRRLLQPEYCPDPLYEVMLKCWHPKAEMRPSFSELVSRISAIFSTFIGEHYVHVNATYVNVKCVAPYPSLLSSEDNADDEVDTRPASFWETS

Sequence of AXL (P30530 26-894): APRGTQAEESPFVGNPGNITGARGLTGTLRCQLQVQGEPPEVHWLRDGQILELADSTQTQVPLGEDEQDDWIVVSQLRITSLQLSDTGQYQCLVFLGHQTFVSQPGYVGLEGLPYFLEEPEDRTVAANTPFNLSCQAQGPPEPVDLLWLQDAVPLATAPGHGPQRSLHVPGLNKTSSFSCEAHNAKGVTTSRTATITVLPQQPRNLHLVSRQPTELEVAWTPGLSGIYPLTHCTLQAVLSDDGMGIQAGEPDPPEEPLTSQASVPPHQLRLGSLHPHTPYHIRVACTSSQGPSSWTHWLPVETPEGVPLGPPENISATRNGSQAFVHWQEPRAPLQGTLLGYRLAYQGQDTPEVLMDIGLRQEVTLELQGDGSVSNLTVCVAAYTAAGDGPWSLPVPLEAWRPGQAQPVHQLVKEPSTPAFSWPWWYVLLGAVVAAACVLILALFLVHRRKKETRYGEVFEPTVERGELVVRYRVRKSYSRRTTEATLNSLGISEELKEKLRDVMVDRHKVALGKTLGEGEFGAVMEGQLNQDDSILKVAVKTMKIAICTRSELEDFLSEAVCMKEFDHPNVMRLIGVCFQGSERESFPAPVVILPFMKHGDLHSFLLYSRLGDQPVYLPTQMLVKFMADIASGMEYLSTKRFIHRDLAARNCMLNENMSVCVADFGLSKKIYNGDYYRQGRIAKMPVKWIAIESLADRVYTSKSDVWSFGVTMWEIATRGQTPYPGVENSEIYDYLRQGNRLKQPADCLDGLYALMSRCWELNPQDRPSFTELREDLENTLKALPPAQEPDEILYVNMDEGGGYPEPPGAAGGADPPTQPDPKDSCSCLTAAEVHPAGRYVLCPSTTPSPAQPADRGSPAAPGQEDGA

IC50 [1]	IC50 [2]	IC50 [3]	SMILES
10 to 100 nM	10 to 100 nM	100 to 300 nM	COc1cc2ncnc(Oc3ccc(NC(=O)C4(C(=O)Nc5ccc(F)cc5)CC4)cc3)c2nc1OC [Compound 28, 1-N-[4-(6,7-dimethoxy-pyrido[3,2-d]pyrimidin-4-yl)oxyphenyl]-1-N′-(4-fluorophenyl)cyclo-propane-1,1-dicarboxamide]
≤ 10 nM	10 to 100 nM	10 to 100 nM	COc1cc2ncnc(Oc3ccc(NC(=O)C4(C(=O)Nc5ccc(F)cc5)CC4)cc3Cl)c2nc1OC [Compound 29, 1-N′-[3-chloro-4-(6,7-dimethoxypyrido[3,2-d]pyrimidin-4-yl)oxyphenyl]-1-N-(4-fluorophenyl)cyclo-propane-1,1-dicarboxamide]
≤ 10 nM	≤ 10 nM	10 to 100 nM	COc1cc2ncnc(Oc3ccc(NC(=O)C4(C(=O)Nc5ccc(F)cc5)CC4)cc3F)c2nc1OC [Compound 30, 1-N′-[4-(6,7-dimethoxypyrido[3,2-d]pyrimidin-4-yl)oxy-3-fluorophenyl]-1-N-(4-fluorophenyl)cyclopropane-1,1-dicarboxamide]
10 to 100 nM	≤ 10 nM	10 to 100 nM	COc1nc2c(Oc3ccc(NC(=O)C4(C(=O)Nc5ccc(F)cc5)CC4)cc3)ncnc2cc1OCCCN1CCOCC1 [Compound 65, 1-N′-(4-fluorophenyl)-1-N-[4-[6-methoxy-7-(3-morpholin-4-ylpropoxy)pyrido[3,2-d]pyrimidin-4-yl]oxyphenyl]cyclopropane-1,1-dicarboxamide]
≤ 10 nM	≤ 10 nM	10 to 100 nM	COc1nc2c(Oc3ccc(NC(=O)C4(C(=O)Nc5ccc(F)cc5)CC4)cc3Cl)ncnc2cc1OCCCN1CCOCC1 [Compound 66, 1-N′-[3-chloro-4-[6-methoxy-7-(3-morpholin-4-ylpropoxy)pyrido[3,2-d]pyrimidin-4-yl]oxyphenyl]-1-N-(4-fluorophenyl)cyclo-propane-1,1-dicarboxamide]
≤ 10 nM	≤ 10 nM	10 to 100 nM	COc1nc2c(Oc3ccc(NC(=O)C4(C(=O)Nc5ccc(F)cc5)CC4)cc3F)ncnc2cc1OCCCN1CCOCC1 [Compound 67, 1-N′-[3-fluoro-4-[6-methoxy-7-(3-morpholin-4-ylpropoxy)pyrido[3,2-d]pyrimidin-4-yl]oxyphenyl]-1-N-(4-fluorophenyl)cyclo-propane-1,1-dicarboxamide]
100 to 1000 nM	> 300 nM	> 300 nM	COc1cc2c(Oc3ccc(NC(=O)C4(C(=O)Nc5ccc(F)cc5)CC4)cc3)ncnc2cn1 [Compound 91, 1-N′-(4-fluorophenyl)-1-N-[4-(6-methoxypyrido[3,4-d]pyrimidin-4-yl)oxyphenyl]cyclopropane-1,1-dicarboxamide]
10 to 100 nM	> 300 nM	> 300 nM	COc1cc2ncnc(Oc3ccc(NC(=O)C4(C(=O)Nc5ccc(F)cc5)CC4)cc3)c2cn1 [Compound 104, 1-N′-(4-fluorophenyl)-1-N-[4-(7-methoxypyrido[4,3-d]pyrimidin-4-yl)oxy-phenyl]cyclopropane-1,1-dicarboxamide]
10 to 100 nM	> 300 nM	100 to 300 nM	COc1cc2ncnc(Oc3ccc(NC(=O)C4(C(=O)Nc5ccc(F)cc5)CC4)cc3)c2cc1C(=O)NC1COC1 [Compound 115, 1-N′-(4-fluorophenyl)-1-N-[4-[7-methoxy-6-(oxetan-3-ylcarbamoyl)quinazolin-4-yl]oxyphenyl]cyclopropane-1,1-dicarboxamide]
10 to 100 nM	100 to 300 nM	100 to 300 nM	COc1cc2ncnc(Oc3ccc(NC(=O)C4(C(=O)Nc5ccc(F)cc5)CC4)cc3)c2cc1C(=O)NC1CC1 [Compound 116, 1-N-[4-[6-(cyclopropylcarbamoyl)-7-methoxyquinazolin-4-yl]oxyphenyl]-1-N′-(4-fluorophenyl)cyclopropane-1,1-dicarboxamide]
10 to 100 nM	≤ 10 nM	100 to 300 nM	COc1cc2ncnc(Oc3ccc(NC(=O)C4(C(=O)Nc5ccc(F)cc5)CC4)cc3)c2cc1C(N)=O [Compound 117, 1-N-[4-(6-carbamoyl-7-methoxyquinazolin-4-yl)oxyphenyl]-1-N′-(4-fluorophenyl)cyclopropane-1,1-dicarboxamide]
10 to 100 nM	10 to 100 nM	100 to 300 nM	COc1cc2ncnc(Oc3ccc(NC(=O)C4(C(=O)Nc5ccc(F)cc5)CC4)cc3)c2cc1C(=O)NCCN1CCCC1 [Compound 118, 1-N′-(4-fluorophenyl)-1-N-[4-[7-methoxy-6-(2-pyrrolidin-1-ylethyl-carbamoyl)quinazolin-4-yl]oxyphenyl]cyclopropane-1,1-dicarboxamide]
100 to 1000 nM	100 to 300 nM	> 300 nM	COc1cc2ncnc(Oc3ccc(NC(=O)C4(C(=O)Nc5ccc(F)cc5)CC4)cc3)c2cc1C(=O)NC[C@H]1CCCN1C(=O)OC(C)(C)C [Compound 119, tert-butyl (2R)-2-[[[4-[4-[[1-[(4-fluoro-phenyl)carbamoyl]cyclo-propane-carbonyl]amino]phenoxy]-7-methoxyquinazoline-6-carbonyl]amino]methyl]pyr-rolidine-1-carboxylate]
100 to 1000 nM	> 300 nM	> 300 nM	COc1cc2ncnc(Oc3ccc(NC(=O)C4(C(=O)Nc5ccc(F)cc5)CC4)cc3)c2cc1C(=O)NC[C@@H]1CCCN1C(=O)OC(C)(C)C [Compound 120, tert-butyl (2S)-2-[[[4-[4-[[1-[(4-fluoro-phenyl)carbamoyl]cyclo-propane-carbonyl]amino]phenoxy]-7-methoxyquinazoline-6-carbonyl]amino]methyl]pyr-rolidine-1-carboxylate]
≤ 10 nM	10 to 100 nM	100 to 300 nM	COc1cc2ncnc(Oc3ccc(NC(=O)C4(C(=O)Nc5ccc(F)cc5)CC4)cc3)c2cc1C(=O)NC[C@H]1CCCN1 [Compound 121, 1-N′-(4-fluorophenyl)-1-N-[4-[7-methoxy-6-[[(2R)-pyrrolidin-2-yl]methyl-carbamoyl]quinazolin-4-yl]oxyphenyl]cyclopropane-1,1-dicarboxamide]
10 to 100 nM	10 to 100 nM	100 to 300 nM	COc1cc2ncnc(Oc3ccc(NC(=O)C4(C(=O)Nc5ccc(F)cc5)CC4)cc3)c2cc1C(=O)NC[C@@H]1CCCN1 [Compound 122, 1-N′-(4-fluorophenyl)-1-N-[4-[7-methoxy-6-[[(2S)-pyrrolidin-2-yl]methyl-carbamoyl]quinazolin-4-yl]oxyphenyl]cyclopropane-1,1-dicarboxamide]
≤ 10 nM	≤ 10 nM	10 to 100 nM	COc1cc2nccc(Oc3ccc(NC(=O)C4(C(=O)Nc5ccc(F)cc5)CC4)cc3)c2nc1OC [Compound 139, 1-N-[4-[(6,7-dimethoxy-1,5-naphthyridin-4-yl)oxy]phenyl]-1-N′-(4-fluorophenyl)cyclo-propane-1,1-dicarboxamide]
≤ 10 nM	≤ 10 nM	≤ 10 nM	COc1cc2nccc(Oc3ccc(NC(=O)C4(C(=O)Nc5ccc(F)cc5)CC4)cc3F)c2nc1OC [Compound 140, 1-N′-[4-[(6,7-dimethoxy-1,5-naphthyridin-4-yl)oxy]-3-fluorophenyl]-1-N-(4-fluorophenyl)cyclopropane-1,1-dicarboxamide]
≤ 10 nM	10 to 100 nM	≤ 10 nM	COc1cc2nccc(Oc3ccc(NC(=O)C4(C(=O)Nc5ccc(F)cc5)CC4)cc3Cl)c2nc1OC [Compound 141, 1-N′-[3-chloro-4-[(6,7-dimethoxy-1,5-naphthyridin-4-yl)oxy]phenyl]-1-N-(4-fluorophenyl)cyclo-propane-1,1-dicarboxamide]
